Experimental data from US10335409B2 (priority 2012, dated 2019).

Legend:
[1] = molecular target: HCV NS3 protease domain genotype 3a (Hepatitis C virus genotype 3a, UniProt Q81258); assay: Ki determination, NS3 protease genotype 3a (fluorogenic depsipeptide substrate); format: biochemical; conditions: 200 pM enzyme, NS4A peptide
Excerpt: Purified NS3 protease domain (amino acids 1-181) of the genotype 1b and 3a virus were generated as above. The internally quenched fluorogenic depsipeptide substrate Ac-DED(Edans)-EEAbuΨ[COO]ASK(Dabcyl)-NH2 and a synthetic peptide containing the hydrophobic core residues of the NS4A protein cofactor ([…]; NS4A peptide) were obtained from Anaspec, Inc. (San Jose, Calif.). Other chemicals and biochemicals were of reagent grade or better and were purchased from standard suppliers.
Reactions were run at room temperature in buffer consisting of 50 mM HEPES, 40% glycerol, 0.05% Triton X-100, 10 mM DTT, and 10% DMSO. The final assay solutions contained 50 pM NS3 genotype 1 b protease or 200 pM genotype 3a protease, 20 μM NS4A peptide, and 4 μM substrate (genotype 1b) or 2 μM substrate (genotype 3a). Inhibitor concentrations varied from 100 nM to 5 pM in 3-fold dilutions, and no-inhibitor controls were included.
Compound dilutions were made in DMSO at 20× final concentration. Reaction mixtures were prepared in 96-well assay plates. A solution of enzyme and NS4A peptide in assay buffer (25 μL volume with both reagents at 4× final concentration) was mixed with 45 μL assay buffer and 5 μL of either inhibitor or DMSO, and pre-incubated at room temperature for 1 hour. The reaction was started by addition of 25 μL substrate solution at 4× final concentration. Plates were mixed vigorously for 5-10 seconds and reactions were allowed to proceed for 90 minutes, fluorescence was measured every 30 s between 90 and 120 minutes reaction time using a Tecan InfiniTe M1000 or PerkinElmer Envision multimode plate reader with an excitation wavelength of 340 nm and an emission wavelength of 490 nm.
Rates were calculated from the progress curves at steady state, in the time frame of 90-120 minutes after addition of substrate. To determine the Ki, rates were plotted as a function of inhibitor concentration, and the data were fit with equation 1 (Morrison, J. F., Biochimica et Biophysica Acta 1969, 185, 269-286) to calculate Ki^app using GraphPad Prism 5. Active fraction of enzyme was determined by active site titration with known potent inhibitors. Ki was calculated from Ki^app/(1+[[S]/Km]).

[2] = system: genotype 1a (H77) stable HCV replicon in Huh-7-derived cells; assay: Stable subgenomic HCV replicon EC50, genotype 1a (Renilla luciferase); format: cell-based, hepatitis C virus; conditions: Hepatitis C virus, stable replicon genotype 1a, 72 h, read-out: EC50 1A RLUC
Outline: (§1)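 Compounds, three-fold diluted, were applied to Huh-7-derived cells harbouring luciferase replicons (genotype 1a H77, 1b Con1, 2a JFH-1, 4a ED43, with strain-specific adaptive mutations). Seventy-two hours later, intracellular replication was gauged by Renilla luciferase activity and EC50 derived by regression.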

[3] = system: genotype 1b (Con1) stable HCV replicon in Huh-7-derived cells; assay: Stable subgenomic HCV replicon EC50, genotype 1b (Renilla luciferase); format: cell-based, hepatitis C virus; conditions: Hepatitis C virus, stable replicon genotype 1b, 72 h, read-out: EC50 1B RLUC
Outline: as §1

[4] = system: genotype 2a (JFH-1) stable HCV replicon in Huh-7-derived cells; assay: Stable subgenomic HCV replicon EC50, genotype 2a (Renilla luciferase); format: cell-based, hepatitis C virus; conditions: Hepatitis C virus, stable replicon genotype 2a, 72 h, read-out: EC50 2A RLUC
Outline: as §1

[5] = system: genotype 3a (S52) stable HCV replicon in Huh-7-derived cells; assay: Stable subgenomic HCV replicon EC50, genotype 3a (Renilla luciferase); format: cell-based, hepatitis C virus; conditions: Hepatitis C virus, 72 h, read-out: EC50 3A RLUC
[6] = system: genotype 4a (ED43) stable HCV replicon in Huh-7-derived cells; assay: Stable subgenomic HCV replicon EC50, genotype 4a (Renilla luciferase); format: cell-based, hepatitis C virus; conditions: Hepatitis C virus, 72 h, read-out: EC50 4A RLUC
Outline: as §1

[7] = system: genotype 3a (S52) wild type transient HCV replicon in Huh-7-derived cells; assay: Transient-transfected HCV replicon EC50, genotype 3a wild type; format: cell-based, hepatitis C virus; conditions: Hepatitis C virus; transient-transfected replicon genotype 3a wild type, 72 h; read-out: EC50 3A WT
[8] = system: genotype 1a (H77) wild type transient HCV replicon in Huh-7-derived cells; assay: Transient-transfected HCV replicon EC50, genotype 1a wild type; format: cell-based, hepatitis C virus; conditions: Hepatitis C virus, 72 h, transient-transfected replicon genotype 1a wild type, read-out: EC50 1A WT
[9] = system: genotype 1a NS3/4a protease inhibitor resistant variant R155K transient HCV replicon in Huh-7-derived cells; assay: Transient-transfected HCV replicon EC50, genotype 1a R155K; format: cell-based, hepatitis C virus; conditions: Hepatitis C virus, 72 h, read-out: EC50 1A R155K, transient-transfected replicon genotype 1a R155K resistant variant, 72 h
[10] = system: genotype 1b (Con1) wild type transient HCV replicon in Huh-7-derived cells; assay: Transient-transfected HCV replicon EC50, genotype 1b wild type; format: cell-based, hepatitis C virus; conditions: Hepatitis C virus, 72 h, transient-transfected replicon genotype 1b wild type, read-out: EC50 1B WT
[11] = system: genotype 1b NS3/4a protease inhibitor resistant variant D168A transient HCV replicon in Huh-7-derived cells; assay: Transient-transfected HCV replicon EC50, genotype 1b D168A; format: cell-based, hepatitis C virus; conditions: Hepatitis C virus, 72 h, read-out: EC50 1B D168A, transient-transfected replicon genotype 1b D168A resistant variant, 72 h

Sequence of HCV NS3 protease domain genotype 3a (Q81258 whole entry, looked up, the tested form may be a part): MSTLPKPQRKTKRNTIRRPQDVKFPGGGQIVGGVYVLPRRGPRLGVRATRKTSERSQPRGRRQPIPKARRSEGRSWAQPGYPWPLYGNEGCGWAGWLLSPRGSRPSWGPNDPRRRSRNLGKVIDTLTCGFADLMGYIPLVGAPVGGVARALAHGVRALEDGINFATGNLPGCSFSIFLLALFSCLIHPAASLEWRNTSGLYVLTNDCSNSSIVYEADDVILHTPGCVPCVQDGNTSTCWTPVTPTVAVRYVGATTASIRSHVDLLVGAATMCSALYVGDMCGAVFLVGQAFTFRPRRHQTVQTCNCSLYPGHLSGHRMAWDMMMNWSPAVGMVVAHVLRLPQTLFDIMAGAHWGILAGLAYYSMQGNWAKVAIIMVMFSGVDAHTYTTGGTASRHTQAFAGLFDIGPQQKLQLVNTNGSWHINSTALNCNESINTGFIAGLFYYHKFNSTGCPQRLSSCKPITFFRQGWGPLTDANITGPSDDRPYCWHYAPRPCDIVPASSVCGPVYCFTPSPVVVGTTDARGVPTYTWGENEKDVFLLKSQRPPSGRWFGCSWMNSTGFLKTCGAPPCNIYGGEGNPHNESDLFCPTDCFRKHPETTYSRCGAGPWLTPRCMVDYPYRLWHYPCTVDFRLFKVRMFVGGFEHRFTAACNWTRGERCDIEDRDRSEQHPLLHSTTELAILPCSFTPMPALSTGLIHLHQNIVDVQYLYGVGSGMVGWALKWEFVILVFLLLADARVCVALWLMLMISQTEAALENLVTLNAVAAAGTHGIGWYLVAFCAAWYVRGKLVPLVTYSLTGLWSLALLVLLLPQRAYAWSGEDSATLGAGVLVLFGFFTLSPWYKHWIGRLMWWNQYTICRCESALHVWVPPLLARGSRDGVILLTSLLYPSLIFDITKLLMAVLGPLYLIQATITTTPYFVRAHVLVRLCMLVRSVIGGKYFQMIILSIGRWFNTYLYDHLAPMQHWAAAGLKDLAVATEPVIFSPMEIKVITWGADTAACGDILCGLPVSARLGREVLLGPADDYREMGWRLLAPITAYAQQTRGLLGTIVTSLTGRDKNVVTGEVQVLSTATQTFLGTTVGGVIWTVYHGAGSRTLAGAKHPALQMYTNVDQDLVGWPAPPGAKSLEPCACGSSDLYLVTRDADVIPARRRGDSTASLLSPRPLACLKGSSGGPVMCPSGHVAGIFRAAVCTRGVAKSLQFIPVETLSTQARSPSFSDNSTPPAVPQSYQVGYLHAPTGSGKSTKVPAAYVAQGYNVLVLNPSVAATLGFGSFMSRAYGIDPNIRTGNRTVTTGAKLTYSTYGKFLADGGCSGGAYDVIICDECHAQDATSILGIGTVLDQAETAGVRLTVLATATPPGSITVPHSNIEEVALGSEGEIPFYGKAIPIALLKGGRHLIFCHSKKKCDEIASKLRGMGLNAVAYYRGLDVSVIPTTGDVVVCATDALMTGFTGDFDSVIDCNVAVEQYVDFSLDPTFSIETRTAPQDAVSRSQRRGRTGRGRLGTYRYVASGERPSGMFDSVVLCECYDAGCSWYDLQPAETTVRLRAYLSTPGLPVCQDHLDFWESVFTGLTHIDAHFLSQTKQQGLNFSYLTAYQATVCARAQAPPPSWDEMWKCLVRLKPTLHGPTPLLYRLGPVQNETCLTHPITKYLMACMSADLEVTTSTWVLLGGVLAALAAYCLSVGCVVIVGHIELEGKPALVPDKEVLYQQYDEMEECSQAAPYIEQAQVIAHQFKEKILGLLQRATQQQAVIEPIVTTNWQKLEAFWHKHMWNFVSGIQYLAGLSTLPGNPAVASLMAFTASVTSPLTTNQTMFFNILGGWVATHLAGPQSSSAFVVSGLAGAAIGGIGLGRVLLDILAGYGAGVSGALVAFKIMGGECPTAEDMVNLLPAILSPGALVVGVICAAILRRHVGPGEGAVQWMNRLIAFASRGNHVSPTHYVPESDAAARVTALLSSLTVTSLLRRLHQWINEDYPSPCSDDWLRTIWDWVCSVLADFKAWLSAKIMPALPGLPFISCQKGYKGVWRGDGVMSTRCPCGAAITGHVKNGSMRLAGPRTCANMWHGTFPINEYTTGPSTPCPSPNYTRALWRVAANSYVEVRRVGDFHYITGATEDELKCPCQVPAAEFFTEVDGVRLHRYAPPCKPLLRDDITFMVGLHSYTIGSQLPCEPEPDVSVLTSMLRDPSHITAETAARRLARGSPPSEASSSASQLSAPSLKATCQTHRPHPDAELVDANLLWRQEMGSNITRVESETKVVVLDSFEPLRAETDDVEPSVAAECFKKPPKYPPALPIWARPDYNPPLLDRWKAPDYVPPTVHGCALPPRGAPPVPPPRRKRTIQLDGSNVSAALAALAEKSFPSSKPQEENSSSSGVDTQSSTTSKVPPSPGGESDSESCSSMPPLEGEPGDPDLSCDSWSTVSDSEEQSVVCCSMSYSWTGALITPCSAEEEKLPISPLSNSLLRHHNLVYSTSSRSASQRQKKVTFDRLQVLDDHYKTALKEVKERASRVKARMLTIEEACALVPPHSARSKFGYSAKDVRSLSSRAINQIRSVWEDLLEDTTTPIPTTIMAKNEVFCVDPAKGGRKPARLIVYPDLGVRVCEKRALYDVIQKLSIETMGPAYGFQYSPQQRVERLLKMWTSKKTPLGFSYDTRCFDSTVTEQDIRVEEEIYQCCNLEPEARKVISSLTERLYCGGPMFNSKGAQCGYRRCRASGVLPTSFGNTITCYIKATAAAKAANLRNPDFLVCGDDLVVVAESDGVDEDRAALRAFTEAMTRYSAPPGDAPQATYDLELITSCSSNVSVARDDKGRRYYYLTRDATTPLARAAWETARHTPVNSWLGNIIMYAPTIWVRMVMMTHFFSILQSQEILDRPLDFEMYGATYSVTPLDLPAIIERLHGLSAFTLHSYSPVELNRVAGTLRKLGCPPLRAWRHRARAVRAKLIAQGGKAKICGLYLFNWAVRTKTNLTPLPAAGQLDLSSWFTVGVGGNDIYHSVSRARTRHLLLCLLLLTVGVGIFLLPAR

SMILES	Ki [1]	EC50 [2]	EC50 [3]	EC50 [4]	EC50 [5]	EC50 [6]	EC50 [7]	EC50 [8]	EC50 [9]	EC50 [10]	EC50 [11]
COc1ccc2nc3c(nc2c1)O[C@H]1CN(C(=O)[C@H](C(C)(C)C)NC(=O)O[C@@H]2C[C@H]2CCCCC3)[C@H](C(=O)N[C@]2(C(=O)NS(=O)(=O)C3(C)CC3)C[C@H]2C(F)F)[C@@H]1C [Example 18, (1aR,5S,8S,9S,10R,22aR)-5-tert-butyl-N-[(1R,2R)-2-(difluoromethyl)-1-{[(1-methylcyclopropyl)sulfonyl]carbamoyl}cyclopropyl]-14-methoxy-9-methyl-3,6-dioxo-1,1a,3,4,5,6,9,10,18,19,20,21,22,22a-tetradecahydro-8H-7,10-methanocyclopropa[18,19][1,10 3,6]dioxadiazacyclononadecino[11,12-b]quinoxaline-8-carboxamide]	0.1 nM	3.9 nM	2.6 nM	5 nM	70 nM	2.8 nM	–	–	–	–	–
CC[C@@H]1[C@@H]2CN(C(=O)[C@H](C3CCCCC3)NC(=O)O[C@@H]3C[C@H]3CCCCCc3nc4ccc(OC)cc4nc3O2)[C@@H]1C(=O)N[C@]1(C(=O)NS(=O)(=O)C2(C)CC2)C[C@H]1C(F)F [Example 16, (1aR,5S,8S,9S,10R,22aR)-5-cyclohexyl-N-[(1R,2R)-2-(difluoromethyl)-1-{[(1-methylcyclopropyl)sulfonyl]carbamoyl}cyclopropyl]-9-ethyl-14-methoxy-3,6-dioxo-1,1a,3,4,5,6,9,10,18,19,20,21,22,22a-tetradecahydro-8H-7,10-methanocyclopropa[18,19][1,10,3,6]dioxadiazacyclononadecino[11,12-b]quinoxaline-8-carboxamide]	0.21 nM	12 nM	7.4 nM	6.2 nM	201 nM	8.1 nM	–	–	–	–	–
CC[C@@H]1[C@@H]2CN(C(=O)[C@H](C(C)(C)C)NC(=O)O[C@@H]3C[C@H]3CCCCCc3nc4ccc(OC)cc4nc3O2)[C@@H]1C(=O)N[C@]1(C(=O)NS(=O)(=O)C2(Cl)CC2)C[C@H]1C(F)F [Example 75, (1aR,5S,8S,9S,10R,22aR)-5-tert-butyl-N-[(1R,2R)-1-{[(1-chlorocyclopropyl)sulfonyl]carbamoyl}-2-(difluoromethyl)cyclopropyl]-9-ethyl-14-methoxy-3,6-dioxo-1,1a,3,4,5,6,9,10,18,19,20,21,22,22a-tetradecahydro-8H-7,10-methanocyclopropa[18,19][1,10,3,6]dioxadiazacyclononadecino[11,12-b]quinoxaline-8-carboxamide]	–	9.9 nM	6.4 nM	18 nM	240 nM	10 nM	56 nM	14 nM	45 nM	3.5 nM	51 nM
CC[C@@H]1[C@@H]2CN(C(=O)[C@H](C(C)(C)C)NC(=O)O[C@@H]3[C@H]4CC[C@H](C4)[C@H]3CCCCCc3nc4ccc(OC)cc4nc3O2)[C@@H]1C(=O)N[C@]1(C(=O)NS(=O)(=O)C2(C)CC2)C[C@H]1C(F)F [Example 37, (1R,4S,4aR,8S,11 S, 12S,13R,25aR)-8-tert-butyl-N-[(1R,2R)-2-(difluoromethyl)-1-{[(1-methylcyclopropyl)sulfonyl]carbamoyl}cyclopropyl]-12-ethyl-17-methoxy-6,9-dioxo-2,3,4,4a,6,7,8,9,12,13,21,22,23,24,25,25a-hexadecahydro-1H,11H-1,4:10,13-dimethanoquinoxalino[2,3-k][1,10,3,6]benzodioxadiazacyclononadecine-11-carboxamide]	–	24 nM	22 nM	16 nM	575 nM	15 nM	69 nM	29 nM	51 nM	22 nM	159 nM
CC[C@@H]1[C@@H]2CN(C(=O)[C@H](C(C)(C)C)NC(=O)O[C@]3(C)CCC[C@H]3CCCCCc3nc4ccc(OC)cc4nc3O2)[C@@H]1C(=O)N[C@]1(C(=O)NS(=O)(=O)C2(C)CC2)C[C@H]1CCF [Example 52, (3aR,7S,10S,11S,12R,24aR)-7-tert-butyl-11-ethyl-N-[(1R,2S)-2-(2-fluoroethyl)-1-{[(1-methylcyclopropyl)sulfonyl]carbamoyl}cyclopropyl]-16-methoxy-3a-methyl-5,8-dioxo-1,2,3,3a,5,6,7,8,11,12,20,21,22,23,24,24a-hexadecahydro-10H-9,12-methanocyclopenta[18,19][1,10,3,6]dioxadiazacyclononadecino[11,12-b]quinoxaline-10-carboxamide]	–	195 nM	245 nM	380 nM	2310 nM	161 nM	538 nM	150 nM	516 nM	161 nM	887 nM
CC[C@@H]1[C@@H]2CN(C(=O)[C@H](C(C)(C)C)NC(=O)O[C@@H]3C[C@H]3CCCCCc3nc4ccc(OC)cc4nc3O2)[C@@H]1C(=O)N[C@]1(C(=O)NS(=O)(=O)C2(F)CC2)C[C@H]1C(F)F [Example 74, (1aR,5S,8S,9S,10R,22aR)-5-tert-butyl-N-[(1R,2R)-2-(difluoromethyl)-1-{[(1-fluorocyclopropyl)sulfonyl]carbamoyl}cyclopropyl]-9-ethyl-14-methoxy-3,6-dioxo-1,1a,3,4,5,6,9,10,18,19,20,21,22,22a-tetradecahydro-8H-7,10-methanocyclopropa[18,19][1,10,3,6]dioxadiazacyclononadecino[11,12-b]quinoxaline-8-carboxamide]	–	8 nM	5 nM	18 nM	374 nM	8.3 nM	138 nM	8.8 nM	44 nM	2.1 nM	56 nM
C[C@@H]1[C@@H]2CN(C(=O)[C@H](C(C)(C)C)NC(=O)O[C@@H]3C[C@@H]4C[C@@H]4[C@H]3CCCCCc3nc4ccc(C#N)cc4nc3O2)[C@@H]1C(=O)NC1(C(=O)NS(=O)(=O)C2(C)CC2)C[C@H]1C(F)F (stereo partly drawn) [Example 97, (1aS,2aR,6S,9S,10S,11R,23aR,23bS)-6-tert-butyl-15-cyano-N-[(2R)-2-(difluoromethyl)-1-{[(1-methylcyclopropyl)sulfonyl]carbamoyl}cyclopropyl]-10-methyl-4,7-dioxo-1a,2,2a,4,5,6,7,10,11,19,20,21,22,23,23a,23b-hexadecahydro-1H, 9H-8,11-methanocyclopropa[4′,5′]cyclopenta[1′,2′:18,19][1,10,3,6]dioxadiazacyclononadecino[11,12-b]quinoxaline-9-carboxamide]	–	6.3 nM	4.6 nM	5.8 nM	67 nM	5.3 nM	5.8 nM	3.6 nM	3.7 nM	2.5 nM	8.8 nM
